Earlier results as cited in patent US7976880B2, “Pregnane glycoside compositions and Caralluma extract products and uses thereof” (priority 2003, dated 2011).
Where two headings read alike, the source gives them in different places.

Test system: appetite
Details: 3 mg per kg body weight

In the case of `O=C(O)CC(O)(C(=O)O)C(O)C(=O)O` (single isomer, unassigned; (-)) [HCA, (−)-hydroxycitrate], the Reduction in appetite (at 6.5 hours) is given as “about 43%” and the Reduction in appetite (at 24 hours) is given as “about 29%”.
